According to US20240016784A1, “Y BOX BINDING PROTEIN 1 INHIBITORS” (Oregon Health & Science University, priority 2020, published 2024):

Tests used:
CALM3 = target: T1, CALM3 (Homo sapiens, UniProt P0DP25); assay: Cellular Thermal Shift Assay (CETSA) in OVCAR8 cells; assay type: binding; conditions: SU056 2.5 μM, 1.5 h, read-out: increase in thermal stability (Tm shift) of CALM3
T1 construct: endogenous in cells; host or cells: OVCAR8
Protocol: (§1) The cellular thermal shift assay (CETSA) is based on the principle of protein-ligand interactions causing a shift in protein thermal stability (Savitski et al., 2014). When a protein interacts with ligand, its thermal stability increases, and this principle allows identification of which protein targets that are engaged by small molecules or drug candidates. We used this assay to identify protein targets of SU056. OVCAR8 cells were treated with SU056 (2.5 μM) for 1.5 h, and protein lysates were analyzed for a thermal shift. The heat maps represent the thermal stability of 804 soluble proteins in the presence and absence of SU056 compare with 37° C. (FIG. 3A).
(§2) Cellular Thermal Shift Assay (CETSA): The assay was performed as previously described (Savitski et al., 2014). Briefly, OVCAR8 cells were treated with vehicle (DMSO) or SU056 (2.5 μM) at 70-80% confluency for 1.5 h. Cells were harvested and washed with 1×PBS twice. Cells were pelleted and resuspended in PBS. 10 different PCR tubes with 1×10^6 cells/tube (in 100 μL PBS) were prepared for both the groups. Tubes were exposed to respective temperatures (37, 41, 44, 47, 50, 53, 56, 59, 63, 67° C.) for 3 min using a thermal cycler (Bio-Rad, CA, USA) followed by 2 min incubation at room temperature.

PSMB2 = target: T2, PSMB2 (Homo sapiens, UniProt P49721); assay: as above; assay type: binding; conditions: SU056 2.5 μM, 1.5 h, read-out: increase in thermal stability (Tm shift) of PSMB2
T2 construct: endogenous in cells; host or cells: OVCAR8
Protocol: as §1, §2

SUMO2 = target: T3, SUMO2 (Homo sapiens, UniProt P61956); assay: as above; assay type: binding; conditions: SU056 2.5 μM, 1.5 h, read-out: increase in thermal stability (Tm shift) of SUMO2
T3 construct: endogenous in cells; host or cells: OVCAR8
Protocol: as §1, §2

TMSB10 = target: T4, TMSB10 (Homo sapiens, UniProt P63313); assay: as above; assay type: binding; conditions: SU056 2.5 μM, 1.5 h, read-out: increase in thermal stability (Tm shift) of TMSB10
T4 construct: endogenous in cells; host or cells: OVCAR8
Protocol: as §1, §2

TMSB4X = target: T5, TMSB4X (Homo sapiens, UniProt P62328); assay: as above; assay type: binding; conditions: SU056 2.5 μM, 1.5 h, read-out: increase in thermal stability (Tm shift) of TMSB4X
T5 construct: endogenous in cells; host or cells: OVCAR8
Protocol: as §1, §2

YB-1 and MDR1 expression = assay: Immunohistochemistry of ID8 tumor xenograft samples; assay type: in vivo, mice; conditions: SU056 20 mg/kg
Protocol: Out of six targets identified, we selected proteins whose thermal shift is above 5° in the presence of SU056 for further study of protein expression after treatment. […] To study the in vivo effects of SU056 treatment, we analyzed ID8 tumor xenograft samples via immunohistochemistry (IHC). […] To identify the broader effects of SU056 on YB-1 and its downstream protein/activity in different ovarian cancer cell lines, we selected six different cell lines and treated them with SU056 (2.5 μM) for 12 h. Cells were analyzed for YB-1 and CD44 expression and Multidrug resistance 1 (MDR1, ABC pump mediated efflux). […] Finally, we tested the time kinetics and dose-dependent effects of SU056 on YB-1 expression. OVCAR4, OVCAR8, and SKOV3 cells were treated with SU056 (1, 2.5, and 5 μM) for 3, 6, 12, and 24 h and YB-1 expression was measured using YB-1 ELISA. […] 5 μM treatment for 24 h inhibited YB-1 completely (100%) in all three OC cells (FIG. 4E).
Immunohistochemistry: Fixed tumors and organs were embedded in paraffin. Each block was cut in 5 μm sections and fixed on poly-L lysine-coated slides. […]
(§3) FIGS. 4A-4E: SU056 inhibits YB-1. […] FIG. 4C) Respective OC cells were treated with 2.5 μM SU056 for 12 h and YB-1 & CD44 expression and multidrug resistance activity was measured as described in the ‘method’ section. The % inhibition was calculated and compared to the control for the respective cell line. […]

[1] = target: T6, YB-1 in OVCAR4, OVCAR8, and SKOV3 cells (Homo sapiens, UniProt P67809); assay: YB-1 inhibition time kinetics (YB-1 ELISA); assay type: cell-based; conditions: 5 μM treatment for 24 h; all three OC cells
T6 construct: endogenous in cells; host or cells: OVCAR4, OVCAR8, SKOV3
Protocol: Out of six targets identified, we selected proteins whose thermal shift is above 5° in the presence of SU056 for further study of protein expression after treatment. […] To study the in vivo effects of SU056 treatment, we analyzed ID8 tumor xenograft samples via immunohistochemistry (IHC). […] To identify the broader effects of SU056 on YB-1 and its downstream protein/activity in different ovarian cancer cell lines, we selected six different cell lines and treated them with SU056 (2.5 μM) for 12 h. Cells were analyzed for YB-1 and CD44 expression and Multidrug resistance 1 (MDR1, ABC pump mediated efflux). […] Finally, we tested the time kinetics and dose-dependent effects of SU056 on YB-1 expression. OVCAR4, OVCAR8, and SKOV3 cells were treated with SU056 (1, 2.5, and 5 μM) for 3, 6, 12, and 24 h and YB-1 expression was measured using YB-1 ELISA. […]
Total YB-1 sandwich ELISA: Total YB-1 protein level was analyzed using PathScan® Total YB1 Sandwich ELISA Kit (Cell Signaling, #12543) by following the manufacturer's protocol.
as §3

[2] = system: OVCAR8 and SKOV-3 OC cell lines; assay: MTT combination study of SU056 and paclitaxel; assay type: cell-based, human; conditions: paclitaxel at 0.1, 0.5, and 1 nM doses
Protocol: Cell viability assay: Cell viability was assessed using the standard MTT assay protocol. In brief, 5,000 cells were plated in each well of 96 well plates (Corning-Costar, #3598) and allowed to attach for 24 h. Cells were treated with a respective concentration of compounds for respective time points. A stock solution of each compound was prepared in DMSO. DMSO concentration was kept constant and maintained below 0.1%. After each incubation, 50 μL of 0.5 mg/ml MTT solution prepared in 1×PBS was added to each well followed by 1 h incubation at 37° C. and 5% CO2. MTT solution and media were then removed, and MTT formazan crystals were dissolved in 100 μL of DMSO per well. Absorbance at 570 nm for each well was recorded using a multimode plate reader to quantitate MTT crystallization. Each absorbance value was normalized to controls and converted into percent cell viability.
Combination index calculation: The combination index (CI) for paclitaxel and SU093 or SU056 was calculated using the Chou-Talalay Method (Chou, 2010). CI values were computed via CampuSyn software. CI<1, CI=1, and CI>1 indicate the synergistic, additive and antagonistic effect of the combination.
Combination index values for paclitaxel and SU056. […] Scale bar, 250 μm FIG. 7E) Spheroid formation was quantified after 7 days of incubation. […] Tumor sections were stained with Ki67, and slides were scored for K167 staining. […]

[3] = Tolerability of SU056 at increasing concentrations; assay type: in vivo; conditions: for death: different concentration; for tolerability: increasing concentrations
Text: FIGS. 15A-15E. […] SU056 treatment at increasing concentrations dose not challenge the dietary behavior as reflected by change in body weight FIG. 15A) Mice and FIG. 15B) Rat. […] Liver microsomes were used for the purpose of metabolic profiling.

T5 sequence (P62328 whole entry): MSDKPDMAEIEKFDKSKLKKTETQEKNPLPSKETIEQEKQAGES
T6 sequence (P67809 whole entry): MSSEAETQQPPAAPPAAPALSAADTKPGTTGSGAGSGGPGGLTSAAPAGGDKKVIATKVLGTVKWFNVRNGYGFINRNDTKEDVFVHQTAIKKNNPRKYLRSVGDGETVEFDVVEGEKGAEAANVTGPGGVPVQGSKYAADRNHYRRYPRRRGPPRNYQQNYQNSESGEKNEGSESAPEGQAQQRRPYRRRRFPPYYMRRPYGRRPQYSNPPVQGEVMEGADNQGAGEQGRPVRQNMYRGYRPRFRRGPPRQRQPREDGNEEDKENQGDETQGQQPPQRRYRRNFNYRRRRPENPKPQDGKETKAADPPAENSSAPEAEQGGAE
T3 sequence (P61956 1-93 limits assumed): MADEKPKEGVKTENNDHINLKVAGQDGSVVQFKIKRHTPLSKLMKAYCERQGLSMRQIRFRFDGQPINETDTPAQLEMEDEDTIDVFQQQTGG
T4 sequence (P63313 whole entry): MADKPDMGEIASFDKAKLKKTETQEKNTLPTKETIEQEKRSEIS

O=C1OCC2=C1C(c1cccc(F)c1)c1cc3c(cc1N2CCO)OCO3 (stereo not drawn) [SU056, 9-(3-fluorophenyl)-5-(2-hydroxyethyl)-6,9-dihydro-[1,3]dioxolo[4,5-g]furo[3,4-b]quinolin-8(5H)-one]
ΔTm at 2.5 µM (CALM3): 4.03 ± 1.07 °C | ΔTm at 2.5 µM (PSMB2): 5.36 ± 0.76 °C | ΔTm at 2.5 µM (SUMO2): 5.4 ± 1.08 °C | ΔTm at 2.5 µM (TMSB10): 5.89 ± 1.18 °C | ΔTm at 2.5 µM (TMSB4X): 4.43 ± 1.31 °C | YB-1 and MDR1 expression in tumors (IHC) (YB-1 and MDR1 expression): strongly inhibits YB-1 expression followed by downregulation of downstream MDR1 | YB-1 inhibition [1]: 100% | effect on cytotoxic effects of paclitaxel (MTT) [2]: significantly potentiates the cytotoxic effects of paclitaxel | death ([3]; mice): did not cause death | tolerability ([3]; mice): well tolerated | death ([3]; rat): did not cause death | tolerability ([3]; rat): well tolerated
